From patent publication US6107273A, “Tumor necrosis factor inhibitors” (Thomas Jefferson University, priority 1995, dated 2000)
Values joined by “and” are separate entries in the source; they are usually repeats but may differ in a detail not shown here. Equal entries are not always repeated. Square brackets hold non-standard residues; d marks the D form. Ends that are not written are not given here. Pen = CC(C)(S)[C@H](N)C(=O)O; Aib = CC(C)(N)C(=O)O

Test system: WEHI 164 cells
Test: In vitro cytotoxicity assay: protection of WEHI 164 cells from TNF-α cytotoxicity (AlamarBlue)
Assay type: cell-based, mouse
Experimental: In vitro cytotoxicity assay Cell line
The murine fibrosarcoma cell line L929 is widely used for testing TNF-α cytotoxicity in vitro. In addition, other cell lines are available that are more sensitive, such as the WEHI 164, a mouse myosarcoma cell line. Both cell lines were initially screened for use in the following experiments and WEHI 164 cells were chosen for their higher sensitivity.
Cells are maintained in serum free medium Ultraculture (Biowhittaker) with the addition of 2 mM Glutamine. The assay is carried out in the same serum free medium.
In the cytotoxicity assay, a susceptible cell line (WEHI 164) is incubated in medium containing serial dilutions of TNF-α for a set time and the consequent cytotoxic activity, manifested as inhibition of cell growth and/or cell death, is evaluated by spectrophotometer measurements of vital dye uptake.
Peptide stock solutions are made in HBSS at the concentration of 1 mg/ml, sterilized by passage through a 0.20 μm×13 mm cellulose acetate filters (Corning). The solutions were used for no longer than 10 days. All the other dilutions needed for the test were prepared just before the assay in sterile manner using the medium Ultraculture.
WEHI 164 cells are taken from logarithmic growth and seeded in 96 well microtiter plates at the density of 2500 cells/well. The assay is performed 48 hours later, at a cell density of approximately 3000 cells/well. Cells are pre-incubated with serial dilutions of peptides for 30 minutes, then TNF-α is added to the wells and incubated for 16 hours at 37° C. Samples are repeated in triplicate.
Control wells for non treated cells contain medium only. A concentration curve of TNF-α is performed for every assay at concentrations ranging between 200 and 1 ng/ml. A control for full protection from TNF-α cytotoxicity is carried out by pre-incubating TNF-α with A2 antibody (Centocor, Malvern Pa.) for 30 minutes then adding it to the cells.
After 16 hour incubation, the vital dye AlamarBlue (Alamar Biosciences) is added in the amount equal to 10% final volume. The plates are returned to the incubator for 6-10 hours.
Absorbance is evaluated at 570 nm, subtracting the background absorbance measured at 595 nm in a BioRad microtiter plate reader.
Values are expressed as a percentage of cell survival, where the control samples (containing medium only) are referred to as 100%.

[1] = 25 μg/ml peptide, TNF 25 ng/ml, 16 h
[2] = 50 μg/ml peptide, TNF 25 ng/ml, 16 h
[3] = 100 μg/ml peptide, TNF 25 ng/ml, 16 h
[4] = 2.5 μg/ml peptide, TNF 5 ng/ml, 16 h
[5] = 25 μg/ml peptide, TNF 5 ng/ml, 16 h
[6] = 50 μg/ml peptide, TNF 25 pg/ml, 16 h
[7] = 100 μg/ml peptide, TNF 25 pg/ml, 16 h

CARDNQAC (cysteine pairing not given here) [Peptide 509]
% cell survival (2.5 μg/ml peptide, TNF 25 ng/ml, 16 h): 21 ± 5%
% cell survival [1]: 28.4%

CEGAEC (cysteine pairing not given here) [Peptide 561]
% cell survival [2]: 92 ± 20%
% cell survival [3]: 90 ± 10%

CIAVSYQTKC (cysteine pairing not given here) [Peptide 558]
% cell survival [2]: 24 ± 8%
% cell survival [3]: 26 ± 7%

CPETPEGAEAKPC (cysteine pairing not given here) [Peptide 506]
% cell survival [4]: 68%
% cell survival [5]: 88.1%

CPQAEGQLC (cysteine pairing not given here) [Peptide 510]
% cell survival [6]: 59.3 ± 1%
% cell survival [7]: 60.4 ± 3%

CPRETPEGAEAKPC (cysteine pairing not given here) [Peptide 505]
% cell survival (100 μg/ml peptide, 30 min pre-incubation, then TNF-α 16 h, TNF concentration not printed (table 1)): 62.7 ± 4% and 32.5 ± 3%

CRIAVSYQTKVC (cysteine pairing not given here) [Peptide 557]
% cell survival [2]: 70 ± 3%
% cell survival [3]: 65 ± 4%

CRRANA[dC] (cysteine pairing not given here) [Peptide 512]
% cell survival [6]: 70.8 ± 6%
% cell survival [7]: 65.6 ± 8%

CSYQTKC (cysteine pairing not given here) [Peptide 522]
% cell survival [4]: 81%
% cell survival [5]: 111%

CSYQTKVC (cysteine pairing not given here) [Peptide 521]
% cell survival [6]: 56.51 ± 3%
% cell survival [7]: 65.26 ± 4%

Pen-Thr-Pro-Glu-Gly-Ala-Glu-Ala-Pen ([Pen]TPEGAEA[Pen]; cysteine pairing not given here) [Peptide 562]
% cell survival [6]: 25.2 ± 7%
% cell survival [7]: 33.1 ± 7%

[Pen]E[Aib]E[Pen] (cysteine pairing not given here) [Peptide 556]
% cell survival [1]: 69 ± 18%
% cell survival [2]: 71 ± 14%
